Experimental data as given in publication PMC6018602, “The virulence factor LecB varies in clinical isolates: consequences for ligand binding and drug discovery” (Chemical Science, 2016).
Several values for one entry are separate records, joined by “and”; a condition that tells them apart may be missing. Equal entries are not always repeated. Where two headings read alike, the source gives them in different places.

Columns and labels:
[1] = target: T1, LecBPA14 (Pseudomonas aeruginosa, UniProt A0A0H2ZE85); test: biochemical; type: binding, P. aeruginosa PA14
Protocol: (§1) To quantify the binding affinities of the carbohydrates we adapted the competitive binding assay for LecBPA14 (Fig. S5 ^†) previously described for LecBPAO1.[18]
(§2) The competitive binding assay based on fluorescence polarization was performed as described previously for PAO1.[18] […] After addition of the reagents, the plate was incubated for 8–22 h at r.t. in a humidity chamber. […] The measured intensities were reduced by buffer values and fluorescence polarization was calculated. The data were analyzed using BMG Labtech MARS software and/or with Graphpad Prism and fitted according to the four parameter variable slope model. […] A minimum of three independent measurements of triplicates each was performed for every ligand.

[2] = target: T2, LecBPAO1 (Pseudomonas aeruginosa, UniProt Q9HYN5); test: biochemical; type: binding, P. aeruginosa PAO1
Protocol: as §1, §2

[3] = target: LecB from P. aeruginosa PA14 (Pseudomonas aeruginosa UCBPP-PA14); test: dynamic light scattering; 100 μM LecB in TBS/Ca (20 mM Tris, 137 mM NaCl, 2.6 mM KCl, pH 7.4, 1 mM CaCl2), 25 °C, Zetasizer Nano-ZS
[4] = target: LecB from P. aeruginosa PA14 (Pseudomonas aeruginosa UCBPP-PA14); test: crystal structure; native LecB_(PA14), hanging drop vapor diffusion at 19 °C, molecular replacement with the tetramer of PDB 1UZV, 1.70 Å
[5] = target: T1, LecBPA14; test: biochemical; type: binding, P. aeruginosa PA14; remark: listed apart in the source
[6] = target: T2, LecBPAO1; settings: cited from earlier work; for N (LecBPAO1): ITC stoichiometry
[7] = target: T2, LecBPAO1; test: biochemical; type: binding, P. aeruginosa PAO1; remark: listed apart in the source
[8] = LecBPAO1 IC50, competitive binding assay, Fig. 3
[9] = IC50 for LecBPAO1, competitive binding assay
[10] = individual ITC titrations, Fig. S6, TBS supplemented with 1 mM CaCl2
[11] = individual ITC titrations, Fig. S6, TBS supplemented with 1 mM CaCl2, protein and ligand concentrations vary

In the case of `OC1[C@H](O)COC[C@H]1O` [Compound 7, 1-deoxy D-arabinose], the IC50 [1] is reported as 6800 ± 1200 nM.
With `CC(=O)NC1C(OC2C(O)C(O)OC(CO)C2O)OC(CO)C(OC2OC(C)C(O)C(O)C2O)C1OC1OC(CO)C(O)C(O)C1OC1OC(C)C(O)C(O)C1O` (stereo not shown) [Compound 16, Lewis^b] the IC50 [2, 8] was 690 ± 40 nM and the IC50 [1] was 150 ± 10 nM.
In the case of “LecB from P. aeruginosa PA14 (natural protein)”, the stoichiometry N [3] is reported as 4 and the stoichiometry N [4] is reported as 4.
Molecule `C[C@@H]1OC[C@@H](O)[C@H](O)[C@@H]1O` [Compound 8, 1-deoxy L-fucose] has an IC50 [1] of 610 ± 100 nM.
Molecule `OCC1OC(OC2C(O)OC(CO)C(O)C2O)C(O)C(O)C1O` [Compound 10, α-1,2-D-mannosyl D-mannose] has an IC50 [2, 8] of 85000 ± 2000 nM and an IC50 [1] of 26000 ± 5000 nM.
`CC(=O)NC1C(OC2C(O)C(O)OC(CO)C2O)OC(CO)C(OC2OC(C)C(O)C(O)C2O)C1OC1OC(CO)C(O)C(O)C1O` (stereo not shown) [Compound 12, Lewis^a] gave an IC50 [2, 9] of 166 nM, an IC50 [2, 8] of 170 ± 10 nM and an IC50 [1] of 78 nM. The “N (LecBPA14)” value ([5]; ITC stoichiometry, 25 °C) was 1.05 ± 0.11, the “-TΔS (LecBPA14)” value ([5]; ITC, 25 °C) was -0.813 ± 0.509 kcal/mol and the “ΔG (LecBPA14)” value ([5]; ITC, 25 °C) was -9.78 ± 0.196 kcal/mol. The “ΔH (LecBPA14)” value ([5]; ITC, 25 °C) was -8.99 ± 0.602 kcal/mol, the Kd ([5]; Kd (LecBPA14), ITC, 25 °C) was 70 nM and the Kd ([5]; Kd, individual ITC titrations, Fig. S6, TBS supplemented with 1 mM CaCl2) was 62.1 nM and 96.2 nM and 50.3 nM. The G [5, 10] was -9,83E+03 cal/mol and -9,57E+03 cal/mol and -9,96E+03 cal/mol, the H [5, 10] was -8.521 kcal/mol and -8.769 kcal/mol and -9.667 kcal/mol and the s [5, 10] was 4,39 cal/molK and 2,69 cal/molK and 0,969 cal/molK. For the same molecule, the Ka [5, 11] was 1,61E+07 1/M and 1,04E+07 1/M and 1,99E+07 1/M, the “N (LecBPAO1)” value [6] was 1.08 and the “-TΔS (LecBPAO1)” value ([6]; ITC) was -0.741 kcal/mol. For the same molecule, the “ΔG (LecBPAO1)” value ([6]; ITC) was -9.11 kcal/mol, the “ΔH (LecBPAO1)” value ([6]; ITC) was -8.34 kcal/mol and the Kd ([6]; read-out: Kd (LecBPAO1), ITC) was 212 nM.
With `CC(=O)N[C@H]1[C@H](O[C@H]2[C@H](O)[C@@H](NC(C)=O)C(O)O[C@@H]2CO)O[C@H](CO)[C@@H](O[C@@H]2O[C@H](CO[C@H]3O[C@H](CO)[C@@H](O)[C@H](O)[C@@H]3O[C@@H]3O[C@H](CO)[C@@H](O[C@@H]4O[C@H](CO)[C@H](O)[C@H](O[C@@H]5O[C@H](CO)[C@@H](O[C@@H]6O[C@H](CO)[C@H](O)[C@H](O)[C@H]6O[C@@H]6O[C@@H](C)[C@@H](O)[C@@H](O)[C@@H]6O)[C@H](O)[C@H]5NC(C)=O)[C@H]4O)[C@H](O)[C@H]3NC(C)=O)[C@@H](O)[C@H](O[C@H]3O[C@H](CO)[C@@H](O)[C@H](O)[C@@H]3O[C@@H]3O[C@H](CO)[C@@H](O[C@@H]4O[C@H](CO)[C@H](O)[C@H](O[C@@H]5O[C@H](CO)[C@@H](O[C@@H]6O[C@H](CO)[C@H](O)[C@H](O)[C@H]6O[C@@H]6O[C@@H](C)[C@@H](O)[C@@H](O)[C@@H]6O)[C@H](O)[C@H]5NC(C)=O)[C@H]4O)[C@H](O)[C@H]3NC(C)=O)[C@@H]2O)[C@@H]1O` (stereo partly shown) [Compound 23] the IC50 [2, 9] was 114 nM and the IC50 [1] was 35 nM.
`CC(=O)NC1C(OC2C(O)C(O)OC(CO)C2O)OC(CO)C(O)C1OC1OC(CO)C(O)C(O)C1OC1OC(C)C(O)C(O)C1O` (stereo not shown) [Compound 14, H type I] showed an IC50 [2, 8] of 2300 ± 100 nM and an IC50 [1] of 910 ± 100 nM.
With `OC[C@H]1OC[C@@H](O)[C@@H](O)[C@@H]1O` [Compound 9, 1-deoxy D-mannose] the IC50 [1] was 56000 ± 16000 nM.
For `OCC1OC(OC2C(O)C(O)OC(CO)C2O)C(O)C(O)C1O` [Compound 11, α-1,3-D-mannosyl D-mannose], the IC50 [2, 8] was 63000 ± 3000 nM and the IC50 [1] was 26000 ± 6000 nM.
`CO[C@@H]1OC[C@@H](O)[C@@H](O)[C@@H]1O` [Compound 6, methyl β-D-arabinoside] gave an IC50 [1] of 1900 ± 400 nM.
In the case of `CO[C@@H]1O[C@@H](C)[C@@H](O)[C@@H](O)[C@@H]1O` [Compound 2, methyl α-L-fucoside], the “N (LecBPA14)” value ([5]; ITC stoichiometry, 25 °C) is reported as 0.99 ± 0.04, the “-TΔS (LecBPA14)” value ([5]; ITC, 25 °C) is reported as -1.5 ± 0.201 kcal/mol and the “ΔH (LecBPA14)” value ([5]; ITC, 25 °C) is reported as -7.65 ± 0.227 kcal/mol. The G [5, 10] was -9,15E+03 cal/mol and -9,22E+03 cal/mol and -9,24E+03 cal/mol and -8,96E+03 cal/mol, the H [5, 10] was -7.957 kcal/mol and -7.593 kcal/mol and -7.612 kcal/mol and -7.414 kcal/mol and the s [5, 10] was 5,45 cal/molK and 5,47 cal/molK and 5,18 cal/molK and 4,01 cal/molK. The Ka [5, 11] was 3,69E+06 1/M, the “-TΔS (LecBPAO1)” value ([6]; ITC) was 1.17 kcal/mol and the “ΔH (LecBPAO1)” value ([6]; ITC) was -9.87 kcal/mol.
For `CO[C@H]1O[C@H](CO)[C@@H](O)[C@H](O)[C@@H]1O` [Compound 5, methyl α-D-mannoside], the “-TΔS (LecBPA14)” value [5] was -3.47 ± 0.0789 kcal/mol, the G [5] was -6,63E+03 cal/mol and -6,52E+03 cal/mol and -6,48E+03 cal/mol and the Ka [5] was 7,18E+04 1/M and 6,20E+04 1/M and 5,54E+04 1/M. The “N (LecBPA14)” value [5] was 1.03 ± 0.07, the s [5] was 11,8 cal/molK and 11,3 cal/molK and 11,7 cal/molK and the “ΔH (LecBPA14)” value [5] was -3.08 ± 0.0813 kcal/mol. The “N (LecBPAO1)” value [6] was 0.94, the “-TΔS (LecBPAO1)” value ([6]; ITC) was -1.41 kcal/mol and the “ΔH (LecBPAO1)” value ([6]; ITC) was -4.25 kcal/mol.
Work on `CC(=O)NC1C(OC2C(O)C(O)OC(CO)C2O)OC(CO)C(OC2OC(CO)C(O)C(O)C2OC2OC(C)C(O)C(O)C2O)C1O` (stereo not shown) [Compound 15, H type II] yielded an IC50 [2, 9] of 930 nM, an IC50 [1] of 180 nM and a Kd [7] of 605 ± 140 nM. For the same molecule, the “N (LecBPAO1)” value ([7]; ITC stoichiometry, 25 °C) was 1.01 ± 0.07, the “-TΔS (LecBPAO1)” value ([7]; ITC, 25 °C) was -0.837 ± 0.096 kcal/mol and the “ΔG (LecBPAO1)” value ([7]; ITC, 25 °C) was -8.48 ± 0.12 kcal/mol. For the same molecule, the “ΔH (LecBPAO1)” value ([7]; ITC, 25 °C) was -7.67 ± 0.096 kcal/mol, the “N (LecBPA14)” value ([5]; ITC stoichiometry, 25 °C) was 0.98 ± 0.03 and the “-TΔS (LecBPA14)” value ([5]; ITC, 25 °C) was -2.75 ± 0.263 kcal/mol. The “ΔG (LecBPA14)” value ([5]; ITC, 25 °C) was -9.18 ± 0.22 kcal/mol, the “ΔH (LecBPA14)” value ([5]; ITC, 25 °C) was -6.43 ± 0.454 kcal/mol and the Kd ([5]; Kd (LecBPA14), ITC, 25 °C) was 199 nM.
